Laboratory results: patent US10876096B2, “Cell culture medium for enhanced hepatocyte function” (Corning Incorporated, priority 2012, dated 2020)

Columns and labels:
[1] = test system: hepatic markers (ALB, AFP, CYP3A4, CYP7A1, PGC1a); experiment: Real-time PCR mRNA expression of hepatic markers in differentiated hESCs; type: cell-based, human; settings: collagen coated plates with or without Matrigel overlay (FIG. 11)
Protocol: The effect of LFM-A13 on rifampicin-induced CYP3A4 activity and on mRNA expression of a variety of hepatic markers is also determined on the differentiated hESCs. […] In FIG. 11, ALB is albumin, AFP is alpha-fetoprotein, CYP3A4 is cytochrome p450 3A4, CYP7A1 is cytochrome p450 7A1, and PGC1a is […] (COL=collagen I coated plate; MOL=Matrigel overlay).

[2] = test system: human embryonic stem cells (hESCs) derived hepatocytes; experiment: Immunostaining of hepatic markers in hESC derived hepatocytes; type: cell-based; settings: Corning hepatocyte medium, 10 μM, 7 days, versus absence (FIG. 9)
Protocol: The effects of LFM-A13 on human embryonic stem cells (hESCs) derived hepatocytes are evaluated. Briefly, hESCs are committed to the hepatocyte lineage using methods known to those skilled in the art and then are cultured in Corning hepatocyte medium in the presence or absence of 10 μM LFM-A13. After 7 days, the stem cell derived hepatocytes are immunostained with primary antibodies to detect expression of hepatocyte proteins; (b) to test for the presence of albumin (ALB), a hepatic precursor marker; and (c) to test for the presence of multidrug resistance-associated protein 2 (MRP2), a member of the superfamily of ATP-binding cassette (ABC) transporters and a marker for hepatic function. Nuclei of cells are counterestained with 4′,6-diamidino-2-phenylindole dihydrochloride (DAPI) to visualize all cells (FIG. a). As depicted, hESCs cultured in the absence of LFM-A13 (left column) have low levels of hepatic markers (ALB and MRP2). In contrast, hESCs cultured in the presence of LFM-A13 (right column) have higher levels of hepatic markers (ALB and MRP2).

[3] = test system: mRNA for drug metabolism enzymes and hepatic proteins; experiment: Relative mRNA levels by real-time PCR in primary human hepatocytes; type: cell-based; settings: 10 μM
Protocol: The effects of LEF, LFM, and LFM-A13 on gene expression are tested. Briefly, primary human hepatocytes cultured on collagen I coated surface are incubated with Corning hepatocyte medium containing vehicle control, 10 μM LEF, 10 μM LFM, and 10 μM LFM-A13, respectively. At the end of 48-hour incubation, total RNA is isolated and relative mRNA levels are quantified using real-time PCR. The results are shown in FIG. 6, where CYP is cytochrome P450 enzyme, SULT is sulfotransferase, UGT is UDP-glucuronosyltransferase, ABC is ATP-binding cassette transporters, AHR is aryl hydrocarbon receptor, CAR is constitutive androstene receptor, and PXR is pregnenolone x-receptor.
The effect of LFMA-13 on levels of mRNA encoding a wider variety of drug metabolism enzymes and other proteins of primary human hepatocytes is tested. Briefly, primary human hepatocytes cultured on collagen I coated surface are incubated with Corning hepatocyte medium containing vehicle control and 10 μM LFM-A13, respectively. At the end of 48-hour incubation, total RNA is isolated and relative mRNA levels are quantified using real-time PCR. The results are shown in FIG. 7, where ABC is ATP-binding cassette transporters, CYP is cytochrome P450 enzyme, SLC is solute carrier transporter, SULT is sulfotransferase, UGT is UDP-glucuronosyltransferase, GST is glutathione S-transferase, AHR is aryl hydrocarbon receptor, FOXO is forkhead box receptors, HNF is hepatic nuclear factor, NCO is nuclear receptor coactivator, NR is nuclear receptor, PPARGC1A is peroxisome proliferator-activated receptor gamma coactivator 1-alpha, RXR is retinoid X receptor, and VDR is vitamin D receptor.

Polo-like kinase (PLK) = settings: stated as known; cited from earlier work
BTK = BTK (Homo sapiens, UniProt Q06187); settings: reported, U.S. Pat. No. 6,303,652; cited from earlier work
Sequence of BTK (Q06187 whole entry, species assumed): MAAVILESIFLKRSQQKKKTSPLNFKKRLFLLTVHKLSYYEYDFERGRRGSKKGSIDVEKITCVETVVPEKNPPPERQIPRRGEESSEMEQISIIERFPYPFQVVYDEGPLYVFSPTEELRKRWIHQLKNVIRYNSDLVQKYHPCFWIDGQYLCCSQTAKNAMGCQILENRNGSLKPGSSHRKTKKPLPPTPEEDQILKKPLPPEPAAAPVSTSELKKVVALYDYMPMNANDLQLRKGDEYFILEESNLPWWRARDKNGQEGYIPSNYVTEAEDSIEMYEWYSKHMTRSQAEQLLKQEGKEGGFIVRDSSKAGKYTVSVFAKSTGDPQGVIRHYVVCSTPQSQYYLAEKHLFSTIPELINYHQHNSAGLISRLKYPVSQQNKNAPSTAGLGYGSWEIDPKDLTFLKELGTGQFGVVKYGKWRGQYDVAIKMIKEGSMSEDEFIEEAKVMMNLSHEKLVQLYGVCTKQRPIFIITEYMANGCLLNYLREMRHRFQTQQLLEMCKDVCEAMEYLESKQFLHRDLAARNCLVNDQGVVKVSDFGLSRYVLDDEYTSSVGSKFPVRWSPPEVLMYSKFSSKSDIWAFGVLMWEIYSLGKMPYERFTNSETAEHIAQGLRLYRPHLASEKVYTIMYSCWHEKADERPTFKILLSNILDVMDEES

liver cells = experiment: Drug metabolism activity / global hepatic function of liver cells with other BTK inhibitors and PLK siRNA; type: cell-based
Excerpt: […] The broad enhancement of hepatic function seen with LFM-A13 is not observed with these structurally unrelated BTK inhibitors.

Row | SMILES | expression of hepatic markers (mRNA) [1] | level of hepatic marker MRP2, immunostaining [2] | level of hepatic marker albumin (ALB), immunostaining [2] | AHR mRNA level ([3]; 48 h (FIG. 6)) | CYP1A2 mRNA level ([3]; 48 h (FIG. 6)) | CYP2B6 mRNA level ([3]; 48 h (FIG. 6)) | CYP3A4 mRNA level ([3]; 48 h (FIG. 6)) | UGT1A1 mRNA level ([3]; 48 h (FIG. 6)) | mRNA levels of some of the ABC transporters ([3]; 48 h (FIG. 6)) | mRNA levels of a wide variety of drug metabolism enzymes, including many CYPs ([3]; 48 h (FIG. 7)) | PLK inhibition (Polo-like kinase (PLK)) | BTK inhibition (BTK) | broad enhancement of hepatic function / global hepatic enhancement (liver cells)
1 | C/C(O)=C(/C#N)C(=O)Nc1cc(Br)ccc1Br [LFM-A13, α-Cyano-β-Hydroxy-β-Methyl-N-(2,5-Dibrobophenyl)Propenamide] | enhanced expression | higher levels | higher levels | greatly increased | greatly increased | greatly increased | greatly increased | greatly increased | greatly increased | increased levels | Polo-like kinase (PLK) inhibitor | potent BTK inhibitor | –
2 | CC1=C(O)C(=O)[C@@H]2O[C@@H]2C1=O [Terreic acid] | – | – | – | – | – | – | – | – | – | – | – | – | not observed
